Results taken from patent US20090093539A1, “ANTI-ANGIOGENIC COMPOSITIONS AND METHODS OF USE THEREOF” (priority 2007, published 2009).

Experiments:
Type in all cases: cell-based
[1] = system: Bovine Cardio-Pulmonary Artery Endothelial (CPAE) cells; experiment: endothelial cell proliferation assay (cellular acid phosphatase readout)
Description: An endothelial cell proliferation assay was carried out according to the procedures of Connally, et al. (1986) (Anal. Biochem. 152:136-140) with modifications (Liang and Wong (2000) ANGIOGENESIS: FROM THE MOLECULAR TO INTEGRATIVE PHARMACOLOGY, edited by Maradoudakis, Kluwer Academic/Plenum Publishers, New York, pp 209-223). Bovine Cardio-Pulmonary Artery Endothelial (CPAE) cells acquired from American Type Culture Collection (ATCC; ATCC No. CCL-209) were grown to nearly 95% confluence in MEM-10E. The cells were released from the tissue culture flask with a 0.25% trypsin solution and plated in 24-well tissue culture plates in the same culture medium at a density of 10,000 cells/well. After the plates were incubated for 8 hours at 37° C. in a 5% carbon dioxide incubator, assay samples and control samples were added. Each sample was loaded in two different wells at 100 μl/well to ensure reproducibility. After incubation with the sample for 60 hours, the medium was aspirated, and the number of cells was measured on the basis of the calorimetric measurement of cellular acid phosphatase.

[2] = system: SW480 (Colon Cancer) cancer cell line; experiment: inhibition of cancer cell lines in vitro: SW480; details: about 2 micrograms per milliliter
From the text: (§1) 15,16-dihyrotanshinone I is also a potent inhibitor of several cancer cell lines in vitro, including the SW480 (Colon Cancer) and the HTB 72 (Melanoma) cancer cell lines. At a very low concentration of about 2 micrograms per milliliter, 100% inhibitions are achieved.

[3] = system: HTB 72 (Melanoma) cancer cell line; experiment: inhibition of cancer cell lines in vitro: HTB 72; details: about 2 micrograms per milliliter
From the text: as §1

Cc1cccc2c3c(ccc12)C1=C(C(=O)C3=O)C(C)CO1 (stereo not shown) [15,16-dihydrotanshinone I, 15,16-dihydrotanshinone]
inhibition at 50 µg/mL ([1]; Bos taurus, Endothelial cell, 50 μg/ml, 60 hours incubation, read-out: endothelial cell growth inhibition): 84.4% | inhibition of endothelial cell proliferation, concentration-dependent study (FIG. 1) ([1]; another 15,16-dihydrotanshinone I sample, result in words): inhibits endothelial cell proliferation in a concentration-dependent manner | inhibition of SW480 (Colon Cancer) cell line [2]: 100% | inhibition of HTB 72 (Melanoma) cell line [3]: 100%
